Tests used:
[1] = test system: Fusarium oxysporum f. sp. lycopersici (isolate FP-7) spores; assay: Fusarium tetrazolium (MTT) spore viability assay; assay type: cell-based; details: for concentration giving elimination of viable cells: 24 hr exposure, absorbance at 570 nm; for cell viability result compared with Benlate control: tetrazolium cell viability test
Experimental: (§1) The suspension was then standardized using a Beckman spectrophotometer (430 nm), which has been calibrated using a CDB blank. […] Suspensions were incubated for 24 hr at 28° C. A 10% stock solution of MTT was then added to each aliquot. The suspensions were allowed to incubate for 4 hr, then pelleted, drained, rinsed, and treated with 95% ethanol. The color change, which correlates with spore viability, was assessed using the Beckman spectrophotometer (570 nm), calibrated with 95% ethanol. Benlate (benomyl) was used as an industry standard control. Each treatment was replicated six times and the assay for each compound was repeated. […] A mycelial plug of (cork bore size #3) Fusarium oxysporum f. sp. lycopersici (isolate FP-7) from a 7-day old culture was placed at the center of the plate and the radial growth of the fungus was measured for 7-10 days. Each treatment was replicated six times and the assay for each compound was repeated. Regression analysis was performed using Sigma Plot 2000.
(§2) The tetrazolium assay is based on a color change produced with a vital stain on living tissue, i.e. the lower the absorbance, the fewer viable cells.

[2] = test system: purple nutsedge (Cyperus rotundus) tubers; assay: Nutsedge greenhouse assay, soil drench on tubers in pots; assay type: in vivo; details: 100 ml soil drench, tarped 7 days, shoots counted 60 days
Experimental: Herbicide Screen: Each candidate compound was tested on seeds of smooth pigweed (Amaranthus hybridus) and barnyard grass (Echinocloa crus-galli), and on tubers of purple nutsedge (Cyperus rotundus) by exposing seeds or tubers to a specific concentration of the test compound. Seeds were surface sterilized and 20 seeds placed on sterile filter paper (Whatman #5) in a 10-cm petri plate for each of six replicates for each weed species tested. Twenty ml of compound of concentrations ranging from 0 ppm (sterile water control) to 2000 ppm was added to the petri dishes. Plates were stored at 30° C. in an dark incubator. Seed germination was monitored at 24 hr intervals for 30 days. Petri plate bioassays were repeated twice for each compound. Field collected purple nutsedge tubers were placed in 500 g of field soil with soil moisture adjusted to 5%. Five nutsedge tubers were planted in each 10-cm pot at a depth of 2.5 cm. Six replicate pots of each concentration, ranging from 0 ppm (water control) to 2000 ppm, will be treated using 100 ml as a soil drench. Pots were tarped with co-extruded black-on-white polyethylene mulch for 7 days. After tarps were removed, the number of emerged nutsedge shoots was recorded on a weekly basis for 60 days.

[3] = test system: Fusarium oxysporum f. sp. lycopersici (isolate FP-7); assay: Fusarium petri plate (PDA) assay, radial growth; assay type: cell-based; details: for fungal growth elimination compared with Benlate control: PDA-based assay
Experimental: as §1, §2

[4] = test system: root knot nematode Meloidogyne sp.; assay: Field study, root knot nematode root galling on tomato; assay type: in vivo; details: 600 and 800 lb per acre, assessed at harvest; population unevenly distributed
[5] = test system: native weed population (weeds in the plant hole); assay: Field study, weed biomass emerging in the planting hole; assay type: in vivo; details: pre-plant, tomato field, Florida
[6] = test system: nutsedge (Cyperus esculentus and C. rotundus); assay: Field study, weed biomass emerging through the plastic mulch; assay type: in vivo; details: pre-plant, tomato field, Florida

Row | Compound | concentration giving elimination of viable cells [1] | fungal growth elimination compared with Benlate control [3] | cell viability result compared with Benlate control [1] | other results
1 | CCCCNC(=O)n1c(NC(=O)OC)nc2ccccc21 [Benlate, benomyl, reference compound] | 100 ppm |  |  | 
2 | NC(=O)CBr [bromoacetamide, 2-bromoacetamide] | 100 ppm | significantly better than the Benlate control | comparable to a Benlate control | concentration eliminating germination of nutsedge [2]: ≥ 1000 ppm
3 | O=C(O)CBr [bromoacetic acid] |  | significantly better than the Benlate control |  | root knot nematode control (root galling, scale 0-10) versus untreated check [4]: not statistically significantly different from the untreated check; control of weeds in the plant hole versus methyl bromide ([5]; 600 lb per acre): not as effective; control of weeds emerging in the plant hole (fresh and dry weight) versus methyl bromide ([5]; 800 lb per acre): as effective as methyl bromide; control of nutsedge emerging through the plastic versus methyl bromide ([6]; 600 lb per acre): as effective as methyl bromide; control of nutsedge emerging through the plastic (fresh and dry weight) versus methyl bromide ([6]; 800 lb per acre): as effective as methyl bromide
4 | NC(=O)CI [iodoacetamide, 2-iodoacetamide] | 100 ppm | significantly better than the Benlate control | comparable to a Benlate control | 
5 | O=C(O)CI [iodoacetic acid] |  | comparable to the Benalte control |  | concentration at which fungal growth was eliminated ([3]; compound in potato dextrose agar, radial growth measured 7-10 days): ≥ 500 ppm

From patent US20040242697A1, “Methods of reducing pests by use of iodoacetic acid, bromoacetic acid, 2-iodoacetamide, or 2-bromoacetamide” (priority 2003, published 2004)
